Earlier results as cited in paper PMC3946937 (Pharmaceutical research, 2013).
Where two headings read alike, the source gives them in different places.

Legend:
[1] = tested on: Mtb
[2] = tested on: Mtb; conditions: read-out: Mtb Activity in vitro: IC90
[3] = tested on: Mtb; remark: listed apart in the source

O=C(Nc1ccc(F)c(F)c1F)NC1C2CC3CC(C2)CC1C3 (stereo not shown) [AU1235]
Mtb Activity in vitro: MIC [1]: MIC 0.1μg/ml

CN1C(=O)[C@]23CC4=CC=C[C@H](O)[C@H]4N2C(=O)[C@@]1(CO)SS3 [Gliotoxin]
IC90 [2]: 140 nM

CCCCC1C(=O)N(c2ccccc2)N(c2ccc(O)cc2)C1=O (stereo not shown) [Oxyphenbutazone]
Mtb Activity in vitro: MIC [3]: MIC 10μg/ml | Notes: activity in words ([3]; non-replicating TB): Active against non-replicating TB Metabolite active against replicating TB-screened ~5600 compounds
